The source of these data is patent US11667643B2, “RIP1K inhibitors” (priority 2020, dated 2023).

Where two headings read alike, the source gives them in different places.

One experiment deals with L929 cells. Nature of the experiment: L929 cell necroptosis assay (TNFa + zVAD, CellTiter-Glo recovery), functional murine RIP1 assay. Format: cell-based. The procedure: (§1) In this example, U937 and L929 cells were exposed to compounds of the present disclosure and a cell necroptosis assay was conducted to evaluate compound activity in functional human RIP1 and murine RIP1 assays.
(§2) U937 and L929 cells were obtained from the American Type Culture Collection (Manassa, Va., USA). Both cells were maintained in logarithmic growth phase in complete RPMI 1640 media (Sigma, ST Louis, Mo., USA) supplemented with 10% fetal bovine serum (Sigma, ST Louis, Mo., USA) at 37° C. with 5% CO2. For necroptosis assay, L929 cells were plated for 18 h in 100 μL/well medium at 10K cells/well in Costar 96-well black clear-bottom plates (Fisher Scientific, Hampton, N.H., USA); U937 cells were plated on the day of the assay in 50 μL/well medium containing 60 uM zVAD-fmk (Lonza, Basel, Switzerland) at 50K cells/well. Medium from L929 cells were removed from the 96-well plates and replaced with 50 μL/well new medium containing 40 uM zVAD-fmk. Each compound of the present disclosure evaluated in this example was serially diluted in DMSO from 2.5 mM in 4-fold dilutions, and then diluted 1:125 in complete medium. 50 μL/well 2× of the compound was then added to the cells in the plates. The cells were pre-incubated with the compound for 1 hour at 37° C. with 5% CO2 and before addition of 10 μL/well 11×TNFa (Peprotech, Rocky Hill, N.J., USA) to give a final concentration of 2 ng/mL for TNFa. The relative amount of necroptosis cells was determined by luminescent using a Wallac Victor2 Luminometer (PerkinElmer, Waltham, Mass., USA) and a CellTiter-Glo® Luminescent Cell Viability Reagent Assay (Promega, Madison, Wis., USA) added per manufacturer instructions after 18 hours of TNFa stimulation at 37° C. with 5% CO2. This example establishes that embodiments of the compounds described herein have unexpectedly potent activity against human RIP1 and murine RIP1, which allows their assessment in in vivo mouse models of disease.
(In general: In ATP-based viability assays light output follows the ATP content of the culture.)

Another experiment has as its target RIPK1 (Homo sapiens (Human), UniProt Q13546). Nature of the experiment: biochemical. Format: biochemical. The note with it: RIPK1 enzyme 31 ng/well, 30° C. for 30 minutes, luminescence; read-out: RIPK1 ADP-Glo Kinase (IC50). The protocol:
In this example, compounds of the disclosure were evaluated using a biochemical assay using the ADP-Glo™ technology.
ADP-Glo™ (Promega, Madison, Wis., USA) reagents were thawed at ambient temperature. Kinase Detection Reagent was prepared by mixing kinase detection buffer with the lyophilized kinase detection substrate.
A […] stock volume of 5× Reaction Kinase Buffer was made by mixing 1000 μl of 1M MgCl2, 500 μl of 1M Tris-HCL pH7.4, 0.5 mg/ml (25 mg) of BSA, and 3475 μl of distilled H2O. A 3 ml 2× working stock volume of Reaction Kinase Buffer was made containing a final concentration of 100 μM DTT and 4 mM MnCl2.
Components of RIPK1 enzyme (Rigel Pharmaceuticals, South San Francisco, Calif., USA) were thawed on ice. Diluted RIPK1 was prepared in 1× Kinase Reaction Buffer (diluted from 2× buffer) to 31 ng/well.
1.0 ul of diluted compound was added to a 384 well plate in duplicate. […] The final reaction volume was 5.0 μl. The plate was quickly centrifuged and the reaction was incubated at 30° C. for 30 minutes. Adding 5 μl of ADP-Glo™ terminated the reaction. The plate was quickly centrifuged and the reaction was incubated at room temperature for 40 minutes. Kinase Detection Reagent was then added and incubated at room temperature for 30 minutes. The relative light unit (RLU) of kinase reaction was determined by luminescent (Luminescence 0.1 s) using a Wallac Victor2 Luminometer (PerkinElmer, Waltham, Mass., USA).
(In ADP-Glo the light output rises with the ADP produced.)

The test system of a further experiment is U937 cells. Nature of the experiment: U937 cell necroptosis assay (TNFa + zVAD, CellTiter-Glo recovery), functional human RIP1 assay. Format: cell-based. The procedure: as §1, §2
Where [1] appears, read: Mus musculus, L929, 18 h, read-out: L929-CTG-recovery, L929, TNFa + zVAD (IC50), L929 cells, zVAD-fmk, TNFa 2 ng/mL, 18 hours, CellTiter-Glo.
Setting [2] is: Homo sapiens, U-937, 18 h, read-out: U937 Zvad TNF CTG Recovery, U937, TNFa + zVAD (IC50), U937 cells, zVAD-fmk, TNFa 2 ng/mL, 18 hours, CellTiter-Glo.
The mark [3] stands for this setting: read-out: L929-CTG-recovery, L929, TNFa + zVAD (IC50), L929 cells, zVAD-fmk, TNFa 2 ng/mL, 18 hours, CellTiter-Glo.
[4] abbreviates: read-out: U937 Zvad TNF CTG Recovery, U937, TNFa + zVAD (IC50), U937 cells, zVAD-fmk, TNFa 2 ng/mL, 18 hours, CellTiter-Glo.

RIPK1, sequence (Q13546 whole entry, species assumed): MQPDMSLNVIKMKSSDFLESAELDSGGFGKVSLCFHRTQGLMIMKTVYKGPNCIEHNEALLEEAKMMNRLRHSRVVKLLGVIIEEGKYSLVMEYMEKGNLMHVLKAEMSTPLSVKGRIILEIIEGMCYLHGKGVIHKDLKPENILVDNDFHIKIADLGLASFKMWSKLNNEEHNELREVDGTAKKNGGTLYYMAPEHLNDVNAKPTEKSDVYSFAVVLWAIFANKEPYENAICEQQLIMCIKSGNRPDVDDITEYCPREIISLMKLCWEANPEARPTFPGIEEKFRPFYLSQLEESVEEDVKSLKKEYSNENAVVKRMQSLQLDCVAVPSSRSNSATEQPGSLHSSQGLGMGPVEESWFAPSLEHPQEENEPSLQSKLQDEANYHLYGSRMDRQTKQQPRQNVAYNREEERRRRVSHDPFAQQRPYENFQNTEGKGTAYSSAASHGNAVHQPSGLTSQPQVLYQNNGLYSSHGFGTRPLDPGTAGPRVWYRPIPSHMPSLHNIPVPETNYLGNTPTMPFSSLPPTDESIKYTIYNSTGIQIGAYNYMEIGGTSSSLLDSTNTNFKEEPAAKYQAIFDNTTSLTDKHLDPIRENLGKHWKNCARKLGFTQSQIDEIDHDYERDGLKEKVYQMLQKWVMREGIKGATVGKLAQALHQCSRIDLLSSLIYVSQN

Turning to `O=C(NC1Cc2ccccc2-n2ccnc21)c1n[nH]c(Cc2ccccc2)n1` (racemic) [Compound I-66, (±)-5-Benzyl-N-(4,5-dihydroimidazo[1,2-a]quinolin-4-yl)-1H-1,2,4-triazole-3-carboxamide], the IC50 in the experiment with L929 cells (setting [1]) was 10000 µM; at RIPK1, 13.5 µM; in the experiment with U937 cells (setting [2]), 10000 µM.
`CC(C)(O)C#Cc1ccc2c(c1)-n1nnnc1[C@@H](NC(=O)c1n[nH]c(Cc3ccccc3)n1)CO2` [Compound I-69, (R)-5-Benzyl-N-(9-(3-hydroxy-3-methylbut-1-yn-1-yl)-4,5-dihydrobenzo[b]tetrazolo[1,5-d][1,4]oxazepin-4-yl)-1H-1,2,4-triazole-3-carboxamide]: the IC50 in the experiment with L929 cells (setting [1]) is 10000 µM; on RIPK1, 0.0601 µM; with U937 cells (setting [2]), 0.787 µM.
The like results for `O=C(NC1CCc2ccccc2-n2c(Cl)cnc21)c1n[nH]c(Cc2ccccc2)n1` (racemic) [Compound I-81, (±)-5-Benzyl-N-(1-chloro-5,6-dihydro-4H-benzo[f]imidazo[1,2-a]azepin-4-yl)-1H-1,2,4-triazole-3-carboxamide] were, in that order, 10000 µM, 0.517 µM and 4.25 µM.
As to `O=C(NC1CCc2ccccc2-n2ccnc21)c1n[nH]c(Cc2ccccc2)n1` (racemic) [Compound I-1, (±)-5-Benzyl-N-(5,6-dihydro-4H-benzo[f]imidazo[1,2-a]azepin-4-yl)-1H-1,2,4-triazole-3-carboxamide], the IC50 in the experiment with L929 cells (setting [1]) came to 10000 µM; in the experiment on U937 cells (setting [2]), 0.376 µM.
In the case of `O=C(NC1CCc2ccccc2-n2ccnc21)c1ncn(Cc2c(Cl)cccc2Cl)n1` (single isomer, unassigned) [Compound I-12], the IC50 with L929 cells (setting [3]) was 10000 µM; in the experiment on U937 cells (setting [4]), 17 µM.
Regarding `Cc1cnc2n1-c1ccccc1CCC2NC(=O)c1n[nH]c(Cc2ccccc2)n1` (racemic) [Compound I-40, (±)-5-Benzyl-N-(1-methyl-5,6-dihydro-4H-benzo[f]imidazo[1,2-a]azepin-4-yl)-1H-1,2,4-triazole-3-carboxamide], the IC50 in the experiment on L929 cells (setting [1]) and with U937 cells (setting [2]) was 10000 µM in each case.
`CC(C)(O)C#Cc1ccc2c(c1)-n1nnnc1[C@@H](NC(=O)c1cc(O)n(Cc3ccccc3)n1)CO2` [Compound I-76, (R)-1-Benzyl-5-hydroxy-N-(9-(3-hydroxy-3-methylbut-1-yn-1-yl)-4,5-dihydrobenzo[b]tetrazolo[1,5-d][1,4]oxazepin-4-yl)-1H-pyrazole-3-carboxamide]: the IC50 with L929 cells (setting [1]) and in the experiment with U937 cells (setting [2]) was 10000 µM each time.
On to `O=C(NC1CCc2ccccc2-n2ccnc21)c1ncnn1Cc1c(Cl)cccc1Cl` (racemic) [Compound I-6, (±)-1-(2,6-Dichlorobenzyl)-N-(5,6-dihydro-4H-benzo[f]imidazo[1,2-a]azepin-4-yl)-1H-1,2,4-triazole-5-carboxamide], for which the IC50 turned out to be 10000 µM in the experiment with L929 cells (setting [1]) and 885 µM with U937 cells (setting [2]).
Take `CC(C)(O)C#Cc1ccc2c(c1)-n1ccnc1C(NC(=O)c1n[nH]c(Cc3ccccc3)n1)CC2` (racemic) [Compound I-55, (±)-5-Benzyl-N-(9-(3-hydroxy-3-methylbut-1-yn-1-yl)-5,6-dihydro-4H-benzo[f]imidazo[1,2-a]azepin-4-yl)-1H-1,2,4-triazole-3-carboxamide]: the IC50 in the experiment with L929 cells (setting [1]) came to 9.5 µM; in the experiment with U937 cells (setting [2]), 0.0206 µM.
The like results for `O=C(N[C@H]1COc2ccccc2-n2nnnc21)c1ncnn1Cc1c(Cl)cccc1Cl` [Compound I-10, (R)-1-(2,6-Dichlorobenzyl)-N-(4,5-dihydrobenzo[6]tetrazolo[1,5-d][1,4]oxazepin-4-yl)-1H-1,2,4-triazole-5-carboxamide] were, in that order, 10000 µM and 5020 µM.
For `CC(C)(O)C#Cc1ccc2c(c1)-n1ccnc1C(NC(=O)c1n[nH]c(Cc3ccccc3)n1)CO2` (racemic) [Compound I-90, (±)-5-Benzyl-N-(9-(3-hydroxy-3-methylbut-1-yn-1-yl)-4,5-dihydrobenzo[b]imidazo[1,2-d][1,4]oxazepin-4-yl)-1H-1,2,4-triazole-3-carboxamide], the IC50 in the experiment on L929 cells (setting [1]) came to 10000 µM; with U937 cells (setting [2]) it was 0.17 µM.
Regarding `Cc1cccc(C)c1Cn1cnc(C(=O)N[C@H]2COc3ccccc3-n3nnnc32)n1` [Compound I-20, (R)—N-(4,5-Dihydrobenzo[&]tetrazolo[1,5-d][1,4]oxazepin-4-yl)-1-(2,6-dimethylbenzyl)-1H-1,2,4-triazole-3-carboxamide], the IC50 on RIPK1 was determined as 1.87 µM; with U937 cells (setting [2]), 1.56 µM.
For `O=C(NC1CCc2ccccc2-n2ccnc21)c1n[nH]c(Cc2ccccc2)n1` (single isomer, unassigned) [Compound I-5], the figures for the IC50 in the experiment with L929 cells (setting [1]) and in the experiment with U937 cells (setting [4]) were 10000 µM and 86.6 µM, respectively.
On to `O=C(NC1CCc2ccccc2-n2ccnc21)c1ncn(Cc2c(Cl)cccc2Cl)n1` (racemic) [Compound I-7, (±)-1-(2,6-dichlorobenzyl)-N-(5,6-dihydro-4H-benzo[f]imidazo[1,2-a]azepin-4-yl)-1H-1,2,4-triazole-3-carboxamide], for which the IC50 in the experiment on L929 cells (setting [1]) came out at 12.7 µM; with U937 cells (setting [2]) it was 0.0137 µM.
In the case of `O=C(NC1CCc2ccccc2-n2ccnc21)c1ncn(Cc2c(Cl)cccc2Cl)n1` (single isomer, unassigned) [Compound I-13], the results for the IC50 with L929 cells (setting [3]) and with U937 cells (setting [4]) were 3.38 µM and 0.003 µM, respectively.
`O=C(NC1CCc2ccccc2-n2ccnc21)c1n[nH]c(Cc2ccccc2)n1` (single isomer, unassigned) [Compound I-4]: the IC50 with L929 cells (setting [3]) was 10000 µM; with U937 cells (setting [4]) it was 0.203 µM.
Regarding `CC(C)(O)C#Cc1ccc2c(c1)-n1ccnc1[C@@H](NC(=O)c1n[nH]c(Cc3ccccc3)n1)CC2` [Compound I-82, (S)-5-Benzyl-N-(9-(3-hydroxy-3-methylbut-1-yn-1-yl)-5,6-dihydro-4H-benzo[f]imidazo[1,2-a]azepin-4-yl)-1H-1,2,4-triazole-3-carboxamide], the IC50 in the experiment with L929 cells (setting [1]) was found to be 5.29 µM; with U937 cells (setting [2]), 0.0084 µM.
With `CC(C)(O)C#Cc1ccc2c(c1)-n1ccnc1C(NC(=O)c1n[nH]c(Cc3ccccc3)n1)CO2` (single isomer, unassigned) [Compound I-92], the IC50 turned out to be 6 µM in the experiment with L929 cells (setting [1]) and 0.0676 µM in the experiment on U937 cells (setting [2]).
The like results for `O=C(NC1CCc2ccccc2-n2c1nc(Cl)c2Cl)c1cc(Cc2ccccc2)on1` (racemic) [Compound I-70, (±)-5-Benzyl-N-(1,2-dichloro-5,6-dihydro-4H-benzo[f]imidazo[1,2-a]azepin-4-yl)isoxazole-3-carboxamide] were, in that order, 10000 µM and 73.4 µM.
The like results for `CC(C)(O)C#Cc1ccc2c(c1)-n1ccnc1[C@H](NC(=O)c1n[nH]c(Cc3ccccc3)n1)CO2` [Compound I-91, (S)-5-Benzyl-N-(9-(3-hydroxy-3-methylbut-1-yn-1-yl)-4,5-dihydrobenzo[b]imidazo[1,2-d][1,4]oxazepin-4-yl)-1H-1,2,4-triazole-3-carboxamide] were, in that order, 10000 µM and 10000 µM.
The like results for `CN1C(=O)[C@@H](N2CCc3c(nn(Cc4ccccc4)c3Cl)C2=O)COc2cc(C#CC(C)(C)O)ccc21` [Compound I-78] were, in that order, 0.0061 µM and 0.0022 µM.
